A value given as a limit tells only on which side of the number the result lay.

The assay deals with purified human MMP-12 enzyme (Homo sapiens, UniProt P39900). Put plainly: MMP-12 FRET assay. It counts as biochemical. Particulars: substrate 20 μM, room temperature. In a few lines: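 Initial fluorescence rate (325/395 nm) of cleavage of MCA-Pro-Leu-Gly-Leu-Dpa(DNP)-Ala-Arg, 20 μM final, was followed for 30 min at room temperature after a 30 min enzyme–compound preincubation. Buffer: 50 mM HEPES pH 7.4, 100 mM NaCl, 5 mM CaCl2, 0.005% Brij-35, with 10% final DMSO. IC50 came from a Hill-type fit of rate versus inhibitor concentration.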
Sequence of purified human MMP-12 enzyme (P39900 106-470): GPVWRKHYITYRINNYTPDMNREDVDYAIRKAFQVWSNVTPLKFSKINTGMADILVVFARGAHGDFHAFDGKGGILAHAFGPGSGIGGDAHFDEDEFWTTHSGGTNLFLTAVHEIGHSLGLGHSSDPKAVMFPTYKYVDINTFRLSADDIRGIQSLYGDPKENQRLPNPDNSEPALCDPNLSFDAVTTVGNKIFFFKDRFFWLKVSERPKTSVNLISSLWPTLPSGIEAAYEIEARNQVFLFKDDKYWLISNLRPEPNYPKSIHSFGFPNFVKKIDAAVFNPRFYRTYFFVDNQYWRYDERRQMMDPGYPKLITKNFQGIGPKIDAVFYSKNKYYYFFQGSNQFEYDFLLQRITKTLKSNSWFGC
In general, IC50 refers to the concentration needed to halve the response being measured. The compound `CC(C)[C@H](NS(=O)(=O)c1ccc2c(c1)oc1ccc(-c3noc(-c4ccc(Cl)cc4Cl)n3)cc12)C(=O)O` [Compound 270, (S)-2-(8-(5-(2,4-dichlorophenyl)-1,2,4-oxadiazol-3-yl)dibenzo[b,d]furan-3-sulfonamido)-3-methylbutanoic acid] gave an IC50 of under 1.5 nM.

In the case of `CC(C)[C@@H](NS(=O)(=O)c1ccc2oc3cc(-c4nc5ccccc5o4)ccc3c2c1)C(=O)O` [Compound 294, (R)-2-(7-(benzo[d]oxazol-2-yl)dibenzo[b,d]furan-2-sulfonamido)-3-methylbutanoic acid], the IC50 was 9.5 nM.

`CC(C)[C@H](NS(=O)(=O)c1ccc2c(c1)sc1ccc(-c3cc4ccccc4s3)cc12)C(=O)O` [Compound 46, (S)-2-(8-(benzo[b]thiophen-2-yl)dibenzo[b,d]thiophene-3-sulfonamido)-3-methylbutanoic acid]: the IC50 was 289 nM.

For the compound `Cc1ccc(-c2ccc3c(c2)oc2cc(S(=O)(=O)N[C@H](C(=O)O)C(C)C)ccc23)o1` [Compound 135, (S)-3-methyl-2-(7-(5-methylfuran-2-yl)dibenzo[b,d]furan-3-sulfonamido)butanoic acid], the IC50 was under 1.5 nM.

As for `CC(C)[C@H](NS(=O)(=O)c1ccc2c(c1)oc1ccc(-c3cnn(CCN4CCOCC4)c3)cc12)C(=O)O` [Compound 158, (S)-3-methyl-2-(8-(1-(2-morpholinoethyl)-1H-pyrazol-4-yl)dibenzo[b,d]furan-3-sulfonamido)butanoic acid], 223 nM corresponded to half-maximal inhibition (IC50).

In the case of `CC(C)[C@H](NS(=O)(=O)c1ccc2c(c1)oc1ccc(C(=N)Nc3ccccc3)cc12)C(=O)O` [Compound 87, (S)-3-methyl-2-(8-(N-phenylcarbamimidoyl)dibenzo[b,d]furan-3-sulfonamido)butanoic acid], half-maximal inhibition (IC50) was put at 19 nM.

The compound `CC(C)[C@H](NS(=O)(=O)c1ccc2c(c1)sc1cc(-c3ccc(Cl)o3)ccc12)C(=O)O` [Compound 182, (S)-2-(7-(5-chlorofuran-2-yl)dibenzo[b,d]thiophene-3-sulfonamido)-3-methylbutanoic acid] returned an IC50 of under 1.5 nM.

Take `CCCc1ccc(-c2ccc3c(c2)oc2cc(S(=O)(=O)N[C@H](C(=O)O)C(C)C)ccc23)s1` [Compound 232, (S)-3-methyl-2-(7-(5-propylthiophen-2-yl)dibenzo[b,d]furan-3-sulfonamido)butanoic acid]: the IC50 was under 1.5 nM.

For the compound `CC(C)[C@@H](NS(=O)(=O)c1ccc2oc3cc(-c4ccc(C(C)(C)C)o4)ccc3c2c1)C(=O)O` [Compound 240, (R)-2-(7-(5-tert-butylfuran-2-yl)dibenzo[b,d]furan-2-sulfonamido)-3-methylbutanoic acid], the IC50 was found to be 19 nM.

In turn, `Cc1csc(-c2ccc3sc4cc(S(=O)(=O)N[C@H](C(=O)O)C(C)C)ccc4c3c2)c1` [Compound 62, (S)-3-methyl-2-(8-(4-methylthiophen-2-yl)dibenzo[b,d]thiophene-3-sulfonamido)butanoic acid] yielded an IC50 of 44 nM.

As to `CC(C)[C@H](NS(=O)(=O)c1ccc2c(c1)oc1ccc(-c3ccc(C(F)(F)F)s3)cc12)C(=O)O` [Compound 131, (S)-3-methyl-2-(8-(5-(trifluoromethyl)thiophen-2-yl)dibenzo[b,d]furan-3-sulfonamido)butanoic acid], the IC50 was under 1.5 nM.

On to `CC(C)[C@H](NS(=O)(=O)c1ccc2c(c1)oc1cc(-c3cc4ccccc4s3)ccc12)C(=O)O` [Compound 136, (S)-2-(7-(benzo[b]thiophen-2-yl)dibenzo[b,d]furan-3-sulfonamido)-3-methylbutanoic acid], for which the IC50 is under 1.5 nM.

The compound `CC(C)[C@H](NS(=O)(=O)c1ccc2c(c1)oc1ccc(-c3ccc4c(c3)OCO4)cc12)C(=O)O` [Compound 308, (S)-2-(8-(benzo[d][1,3]dioxol-5-yl)dibenzo[b,d]furan-3-sulfonamido)-3-methylbutanoic acid] returned an IC50 of under 1.5 nM.

The compound `CC(C)[C@H](NS(=O)(=O)c1ccc2c(c1)oc1ccc(-c3c(C(F)(F)F)n[nH]c3-c3ccccc3)cc12)C(=O)O` [Compound 206, (S)-3-methyl-2-(8-(5-phenyl-3-(trifluoromethyl)-1H-pyrazol-4-yl)dibenzo[b,d]furan-3-sulfonamido)butanoic acid] returned an IC50 of 110 nM.

Compound `CCCc1ccc(-c2ccc3c(c2)oc2ccc(S(=O)(=O)N[C@H](C(=O)O)C(C)C)cc23)s1` [Compound 246, (S)-3-methyl-2-(7-(5-propylthiophen-2-yl)dibenzo[b,d]furan-2-sulfonamido)butanoic acid] gave an IC50 of 6.2 nM.

For `COc1ccc2nc(-c3ccc4c(c3)oc3ccc(S(=O)(=O)N[C@@H](C(=O)O)C(C)C)cc34)sc2c1` [Compound 296, (R)-2-(7-(6-methoxybenzo[d]thiazol-2-yl)dibenzo[b,d]furan-2-sulfonamido)-3-methylbutanoic acid], the IC50 stood at 3.1 nM.

For the compound `CC(C)Cc1nc(-c2ccc3c(c2)oc2ccc(S(=O)(=O)N[C@@H](C(=O)O)C(C)C)cc23)no1` [Compound 149, (R)-2-(7-(5-isobutyl-1,2,4-oxadiazol-3-yl)dibenzo[b,d]furan-2-sulfonamido)-3-methylbutanoic acid], the concentration for half-maximal inhibition (IC50) was 5.3 nM.

In the case of `CC(C)[C@H](NS(=O)(=O)c1ccc2c(c1)oc1ccc(-c3ncc(CN4CCN(C)CC4)s3)cc12)C(=O)O` [Compound 212, (S)-3-methyl-2-(8-(5-((4-methylpiperazin-1-yl)methyl)thiazol-2-yl)dibenzo[b,d]furan-3-sulfonamido)butanoic acid], half-maximal inhibition (IC50) was put at 86 nM.

For the compound `CC(C)[C@H](NS(=O)(=O)c1ccc2c(c1)oc1ccc(-c3nc4cc(F)ccc4s3)cc12)C(=O)O` [Compound 219, (S)-2-(8-(5-fluorobenzo[d]thiazol-2-yl)dibenzo[b,d]furan-3-sulfonamido)-3-methylbutanoic acid], the IC50 was under 1.5 nM.

`CC(C)[C@H](NS(=O)(=O)c1ccc2c(c1)oc1ccc(-c3nc4c(F)c(F)c(F)cc4s3)cc12)C(=O)O` [Compound 222, (S)-3-methyl-2-(8-(4,5,6-trifluorobenzo[d]thiazol-2-yl)dibenzo[b,d]furan-3-sulfonamido)butanoic acid] came in with an IC50 of 4.9 nM.

The compound `CCC(C)Cn1cc(-c2ccc3oc4cc(S(=O)(=O)N[C@H](C(=O)O)C(C)C)ccc4c3c2)cn1` (stereo partly drawn) [Compound 157, (2S)-3-methyl-2-(8-(1-(2-methylbutyl)-1H-pyrazol-4-yl)dibenzo[b,d]furan-3-sulfonamido)butanoic acid] had an IC50 of 15 nM.

`CC(C)[C@H](NS(=O)(=O)c1ccc2c(c1)oc1ccc(C#CCN(C)C)cc12)C(=O)O` [Compound 2, (S)-2-(8-(3-(dimethylamino)prop-1-ynyl)dibenzo[b,d]furan-3-sulfonamido)-3-methylbutanoic acid] had an IC50 of 2.4 nM.

In turn, `Cc1nc(-c2ccc3oc4cc(S(=O)(=O)N[C@H](C(=O)O)C(C)C)ccc4c3c2)sc1C` [Compound 305, (S)-2-(8-(4,5-dimethylthiazol-2-yl)dibenzo[b,d]furan-3-sulfonamido)-3-methylbutanoic acid] showed an IC50 of 1.6 nM.

`CC(C)C[C@H](NS(=O)(=O)c1ccc2oc3cc(-c4noc(C(C)(C)C)n4)ccc3c2c1)C(=O)O` [Compound 279, (S)-2-(7-(5-tert-butyl-1,2,4-oxadiazol-3-yl)dibenzo[b,d]furan-2-sulfonamido)-4-methylpentanoic acid]: the IC50 was 61 nM.

Source of the values: US20100227859A1, “TRICYCLIC COMPOUNDS AS MATRIX METALLOPROTEINASE INHIBITORS” (priority 2007, published 2010).
